In paper PMC10269622, “Blapstin, a Diapause-Specific Peptide-Like Peptide from the Chinese Medicinal Beetle Blaps rhynchopetera, Has Antifungal Function” (Microbiology Spectrum, 2023):
Bridge positions count the residues as written; N and C are the ends. Ends that are not written are not given here.

Columns and labels:
C. albicans ATCC 10231 = assay: Fungus-killing kinetics (colony counting); format: cell-based, Candida albicans; conditions: 5× MIC, 2 × 10^5 CFU/mL in YM broth, 37°C, three independent experiments
Procedure: The in vitro killing curve for blapstin against C. albicans was determined as described previously with minor modifications ([66]). In brief, C. albicans ATCC 10231 was diluted to 2 × 10^5 CFU/mL with sterile YM liquid broth. Different concentrations of blapstin (1×, 5×, and 10× MIC) were added to the fungal suspension and cultured at 37°C for various periods (0, 1, 10, 30, 60, and 180 min). Colistin E (1×, 5×, and 10× MIC) was used as a positive control, and 0.9% NaCl was used as a negative control. Within the specified time interval after incubation, the fungal suspensions were diluted 1,000-fold with YM medium, and 100 μL of the diluted fungal suspension was inoculated on YM solid medium. After incubation at 37°C for 24 h, colony counting was performed and the results were expressed as CFU per milliliter.

ion channel = assay: Ion channel inhibition; conditions: stated in the discussion only, no method or channel given
RAW 264.7 cells = assay: Cytotoxicity, CCK-8 assay; format: cell-based, mouse; conditions: from 7.03 μM to 225 μM, 24 h, CCK-8, absorbance at 450 nm; three independent experiments
Procedure: Cytotoxicity was determined using mouse RAW 264.7 cells (10^6 cells/mL). These cells were cultured in sterile 96-well microplates with RPMI 1640 medium (Corning, USA) in a 5% CO2 incubator at 37°C. The medium was supplemented with 10% fetal calf serum (FCS) and penicillin-streptomycin (100 U/mL each). Cytotoxicity was assessed using the cell counting kit-8 (CCK-8) assay (MCE, USA). After 24 h of incubation with serial dilutions of blapstin, 10 μL of CCK-8 solution was added to each well. The plate was further incubated for 1 to 4 h under standard cell growth conditions, and the residual absorbance was read at 450 nm. The experiments were repeated three times according to the manufacturer’s instructions.

[1] = tested on: C. albicans ATCC 10231 biofilm; assay: CLSM live/dead (FDA/PI) staining of biofilm; format: cell-based, Candida albicans; conditions: 8× MIC, among 0.5× to 8× MIC; 48 h, 37°C
Procedure: Blapstin at various concentrations (500 μL) was added to 500 μL of the prepared fungal suspension of C. albicans ATCC 10231 (2 × 10^5 CFU/mL) in a sterile 24-well plate to ensure that the final concentration of blapstin ranged from 0.5× to 8× MIC; the plate was incubated for 48 h at 37°C, followed by washing with PBS two to three times to remove unadhered fungal cells. Then, 10 μg/mL of FDA (Solarbio, Beijing, China) and 5 μg/mL of PI (Solarbio, Beijing, China) were added for costaining in the dark for 30 min and washed with PBS twice, as described previously ([68]). Subsequently, the plates were observed using a CLSM (FV 1000; Olympus, Germany). The FDA and PI were excited at 488 nm and 555 nm, respectively, for imaging. Cell viability was assessed based on fluorescence staining; living cells hydrolyze FDA, resulting in the accumulation of green fluorescence, whereas dead cells are stained red by PI. Fluconazole at 10 μΜ and clotrimazole at 10 μΜ were used as a positive control, and sterile 0.9% NaCl was used as a negative control. Green or red fluorescence intensity was calculated using Image J.

T. rubrum = assay: Cryo-SEM membrane morphology; format: cell-based, Trichophyton rubrum; conditions: 1× MIC
C. albicans = assay: pH stability of antifungal activity (paper disk assay); format: physicochemical, Candida albicans; conditions: 30 min at room temperature, then paper disk assay, 37°C, 18 h
Procedure: (ii) Effects of pH. In the test of pH stability of antifungal activity, 50 mg of blapstin was dissolved in 25 mL of solutions with different pH values (pH 3 to 5, 0.1 mol HCl; pH 7 to 9, 1 mmol NaOH), and the peptide solutions of different pH values were incubated at room temperature for 30 min ([63]). Colistin E was used as the positive control, and 1.5% NaCl was used as the negative control. Then, these samples were transferred to the paper disks in the YM solid medium with C. albicans and incubated at 37°C for 18 h for the assay of antifungal activity.

[2] = tested on: C. albicans ATCC 10231 biofilm; assay: Inhibition of biofilm formation (crystal violet); format: cell-based, Candida albicans; conditions: 0.5×, 1×, 2×, 4× and 8× MIC, 24 h, 37°C, absorbance at 600 nm
Procedure: Biofilms are microbial aggregates produced by the extracellular matrix that are attached to abiotic and biotic surfaces ([57]). A biofilm inhibition assay was performed as previously described, with minor modifications, to determine the ability of blapstin to inhibit biofilm formation ([69], [70]). In brief, the concentration of C. albicans ATCC 10231 was adjusted to 1 × 10^6 CFU/mL, and 200 μL per well was added to sterile 96-well plates mixed with different concentrations of blapstin (0.5×, 1×, 2×, 4×, and 8× MIC). After incubation for 24 h at 37°C, these wells were washed three times with PBS to remove unadhered fungal cells, followed by fixation with 99% methanol for 15 min. Next, methanol was removed, and the wells were allowed to dry. Then, 100 μL of 0.1% crystal violet was added to each well for 10 min, and the plate was washed three times. Finally, 100 μL of 95% ethanol was added, and the absorbance at 600 nm was measured to assess biofilm formation. Fluconazole at 10 μM and clotrimazole at 10 μΜ were used as a positive control, and sterile 0.9% NaCl was used as a negative control.

“VRVGPCDQVCSRTNPEKDECCRAHGHSGHSSCYGGRMNCYG (disulfide 6-21, 10-32, 20-39 (inferred)) [Blapstin]” was tested, and the “Time to kill C. albicans ATCC 10231” value (C. albicans ATCC 10231) was “less than 60 min”, the “Ion channel inhibition activity” value (ion channel) was “did not show ion channel inhibition activity” and the “Cytotoxicity in RAW 264.7 cells” value (RAW 264.7 cells) was “no obvious cytotoxicity”. For the same sequence, the “Effect on biofilm activity (FDA-labeled live / PI-labeled dead cells, CLSM)” value [1] was “greatest effect”, the “Membrane morphology under cryo-SEM” value (T. rubrum) was “membrane shrinkage and disruption of the plasma membrane” and the “Antifungal activity after pH exposure” value (C. albicans; pH 3 and pH 5 (HCl)) was “full antifungal activity was retained”. For the same sequence, the “Antifungal activity after pH exposure” value (C. albicans; pH higher than 7 (NaOH, up to pH 9)) was “reduced gradually” and the “Biofilm formation by C. albicans” value [2] was “dose-dependently inhibited”.
